Results as given in US20260274856A1, “COVALENT CEREBLON LIGANDS” (C4 THERAPEUTICS, INC., priority 2023, published 2026).
Where two headings read alike, the source gives them in different places.

Assays:
[1] = test system: A375—NRASQ^61K cells (cell line A375.11); assay: CTGlo (CellTiter-Glo 2.0) Cell Viability Assay; format: cell-based; details: for Emax: lowest % viability achieved
Protocol: Compounds of the present invention were tested for their effect on the viability of A375—NRASQ^61K cells by quantification of ATP using the CellTiter-Glo® 2.0 Cell Viability Assay (Catalog No. G9243, Promega, Madison, WI, USA). This assay produces a luminescent signal in the presence of ATP, which is indicative of metabolically active cells, making the luminescence readout proportional to the number of viable cells. A375—NRASQ^61K cells, also referred to here as cell line A375.11, (harboring BRAF homozygous V600E mutation and NRAS homozygous Q61K mutation) were purchased from ATCC (Catalog No. CRL-1619IG-2, Manassas, VA, USA).
Cells were also plated to a 384-well plate with no compound treatment, to which CellTiter-Glo® reagent was added and luminescence was read right after plating to act as a baseline signal at time of plating (To).
DMSO treated cells with no CellTiter-Glo® reagent added were used as the background or positive control (P). Viability was determined by subtracting out the average background signal (P) and normalized to the average untreated signal (N) set at 100%.

mutant BRAF V600E = mutant BRAF V600E (Homo sapiens, UniProt P15056, V600E); assay: BRAF V600E HiBiT Degradation Assay in A375.10 cells; details: for HiBIT-Degradation A375.10 BRAF 24 hours IP nM / DC50: A375.10 cells, 24 hours; for HiBIT-Degradation A375.10 BRAF 24 hours IP nM: inflection point of the dose-response curve; for DC50: read-out: HiBIT-Degradation A375.10 BRAF 24 hours DC50 nM; for Emax: read-out: HiBIT-Degradation A375.10 BRAF 24 hours Emax
Sequence of mutant BRAF V600E (P15056 whole entry V600E): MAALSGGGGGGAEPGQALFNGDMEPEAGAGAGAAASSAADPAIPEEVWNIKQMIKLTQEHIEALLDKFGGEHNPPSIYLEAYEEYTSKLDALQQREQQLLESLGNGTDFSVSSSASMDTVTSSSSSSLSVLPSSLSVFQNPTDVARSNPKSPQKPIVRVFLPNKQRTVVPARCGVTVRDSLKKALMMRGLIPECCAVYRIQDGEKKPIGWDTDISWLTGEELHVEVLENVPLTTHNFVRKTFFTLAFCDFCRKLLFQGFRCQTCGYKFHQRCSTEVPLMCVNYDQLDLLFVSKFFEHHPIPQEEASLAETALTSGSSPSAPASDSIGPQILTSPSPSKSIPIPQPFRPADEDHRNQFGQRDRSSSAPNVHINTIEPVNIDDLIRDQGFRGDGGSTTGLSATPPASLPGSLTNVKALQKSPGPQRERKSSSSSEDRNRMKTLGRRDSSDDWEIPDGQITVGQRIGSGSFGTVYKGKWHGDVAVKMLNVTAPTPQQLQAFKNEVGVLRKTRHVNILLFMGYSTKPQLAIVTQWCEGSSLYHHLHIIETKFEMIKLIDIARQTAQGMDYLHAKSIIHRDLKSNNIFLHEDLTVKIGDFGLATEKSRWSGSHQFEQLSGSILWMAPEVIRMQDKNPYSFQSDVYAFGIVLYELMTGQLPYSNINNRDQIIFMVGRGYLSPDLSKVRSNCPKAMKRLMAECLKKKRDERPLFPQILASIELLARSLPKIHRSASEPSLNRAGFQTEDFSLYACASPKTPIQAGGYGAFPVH

[2] = 96 h, IP, read-out: CTGlo A375.11 96 hours IP
[3] = half-maximal inhibition of cell growth, table title: A375.11 96 hours, read-out: CTGlo A375.11 96 hours GI50
[4] = 96 hours, IP, read-out: CTGlo A375.11 96 hours IP

GI50 [1, 4] | Compound | GI50 [1, 2] | Emax ([1]; 96 hours) | GI50 [1, 3] | HiBIT-Degradation A375.10 BRAF 24 hours IP nM (mutant BRAF V600E) | DC50 (mutant BRAF V600E) | Emax (mutant BRAF V600E)
 | CCN(C)S(=O)(=O)Nc1ccc(F)c(Oc2ccc3ncn([C@@H]4COC5(CCN(C(=O)CN6CCC(c7ccc(C8CCC(=O)NC8=O)cc7OS(=O)(=O)F)CC6)CC5)C4)c(=O)c3c2)c1C#N (stereo partly drawn) [drawing 1168] | 1 to 10 µM | 60 to 95% | > 10 µM |  |  | 
 | CCN(C)S(=O)(=O)Nc1ccc(F)c(Oc2ccc3ncn([C@H]4COC5(CCN(C(=O)CN6CCC(c7ccc(C8CCC(=O)NC8=O)cc7OS(=O)(=O)F)CC6)CC5)C4)c(=O)c3c2)c1C#N (stereo partly drawn) [drawing 1169] | 1 to 10 µM | < 60% | > 10 µM |  |  | 
 | CCN(C)S(=O)(=O)Nc1ccc(F)c(Oc2ccc3ncn([C@H]4COC5(CCN(C(=O)CN6CCN(c7ccc(C8CCC(=O)NC8=O)cc7OS(=O)(=O)F)CC6)CC5)C4)c(=O)c3c2)c1C#N (stereo partly drawn) [drawing 1170] | < 1 µM | 60 to 95% | > 10 µM |  |  | 
 | CCN(C)S(=O)(=O)Nc1ccc(F)c(Oc2ccc3ncn([C@@H]4COC5(CCN(C(=O)CN6CCC(c7ccc(N8CCC(=O)NC8=O)cc7OS(=O)(=O)F)CC6)CC5)C4)c(=O)c3c2)c1C#N [drawing 1171] | > 10 µM | 60 to 95% | > 10 µM |  |  | 
 | CCN(C)S(=O)(=O)Nc1ccc(F)c(Oc2ccc3ncn([C@H]4COC5(CCN(C(=O)CN6CCN(c7ccc(N8CCC(=O)NC8=O)cc7OS(=O)(=O)F)CC6)CC5)C4)c(=O)c3c2)c1C#N [drawing 1172] | > 10 µM | 60 to 95% | > 10 µM |  |  | 
1 to 10 µM | CCN(C)S(=O)(=O)Nc1ccc(F)c(Oc2ccc3ncn([C@@H]4COC5(CCN(C(=O)CN6CCC(c7ccc(N8CCC(=O)NC8=O)cc7OS(C)(=O)=O)CC6)CC5)C4)c(=O)c3c2)c1C#N [drawing 1173] |  | 60 to 95% | > 10 µM |  |  | 
1 to 10 µM | CCN(C)S(=O)(=O)Nc1ccc(F)c(Oc2ccc3ncn([C@H]4COC5(CCN(C(=O)CN6CCC(c7ccc(N8CCC(=O)NC8=O)cc7OS(C)(=O)=O)CC6)CC5)C4)c(=O)c3c2)c1C#N [drawing 1174] |  | < 60% | 1 to 10 µM |  |  | 
 | CCN(C)S(=O)(=O)Nc1ccc(F)c(Oc2ccc3ncn([C@@H]4COC5(CCN(C(=O)CN6CCC(c7ccc(OC8CCC(=O)NC8=O)cc7S(=O)(=O)F)CC6)CC5)C4)c(=O)c3c2)c1C#N (stereo partly drawn) [drawing 1175] | > 10 µM | < 60% | > 10 µM |  |  | 
1 to 10 µM | CCN(C)S(=O)(=O)Nc1ccc(F)c(Oc2ccc3ncn([C@H]4COC5(CCN(C(=O)CN6CCC(c7ccc(NC8CCC(=O)NC8=O)cc7OS(C)(=O)=O)CC6)CC5)C4)c(=O)c3c2)c1C#N (stereo partly drawn) [drawing 1176] |  | < 60% | > 10 µM |  |  | 
 | CCN(C)S(=O)(=O)Nc1ccc(F)c(Oc2ccc3ncn([C@@H]4COC5(CCN(C(=O)CN6CCC(c7ccc(N8CCC(=O)NC8=O)cc7OS(=O)(=O)F)CC6)CC5)C4)c(=O)c3c2)c1C#N [drawing 1227] |  |  |  | ** (<10 μM and >1 μM is **) | 1000 to 10000 nM | < 60%
 | CCN(C)S(=O)(=O)Nc1ccc(F)c(Oc2ccc3ncn([C@@H]4COC5(CCN(C(=O)CN6CCC(c7ccc(OC8CCC(=O)NC8=O)cc7OS(=O)(=O)F)CC6)CC5)C4)c(=O)c3c2)c1C#N (stereo partly drawn) [drawing 1228] |  |  |  | ** (<10 μM and >1 μM is **) | 1000 to 10000 nM | < 60%
 | CCN(C)S(=O)(=O)Nc1ccc(F)c(Oc2ccc3ncn([C@@H]4COC5(CCN(C(=O)CN6CCN(c7ccc(N8CCC(=O)NC8=O)cc7OS(=O)(=O)F)CC6)CC5)C4)c(=O)c3c2)c1C#N [drawing 1229] |  |  |  | ** (<10 μM and >1 μM is **) | 1000 to 10000 nM | < 60%
 | CCN(C)S(=O)(=O)Nc1ccc(F)c(Oc2ccc3ncn([C@@H]4COC5(CCN(C(=O)CN6CCC(c7ccc(OC8CCC(=O)NC8=O)cc7OS(C)(=O)=O)CC6)CC5)C4)c(=O)c3c2)c1C#N (stereo partly drawn) [drawing 1230] |  |  |  | ** (<10 μM and >1 μM is **) | > 10000 nM | < 60%
